Test results as given in ChEMBL document CHEMBL1781915, “Potential virtual lead identification in the discovery of renin inhibitors: application of ligand and structure-based pharmacophore modeling approaches” (Eur J Med Chem, 2011).
pIC50: −log10 of the molar value.

Molecular target: T1, Renin (Homo sapiens, UniProt P00797)
T1 sequence (P00797 whole entry): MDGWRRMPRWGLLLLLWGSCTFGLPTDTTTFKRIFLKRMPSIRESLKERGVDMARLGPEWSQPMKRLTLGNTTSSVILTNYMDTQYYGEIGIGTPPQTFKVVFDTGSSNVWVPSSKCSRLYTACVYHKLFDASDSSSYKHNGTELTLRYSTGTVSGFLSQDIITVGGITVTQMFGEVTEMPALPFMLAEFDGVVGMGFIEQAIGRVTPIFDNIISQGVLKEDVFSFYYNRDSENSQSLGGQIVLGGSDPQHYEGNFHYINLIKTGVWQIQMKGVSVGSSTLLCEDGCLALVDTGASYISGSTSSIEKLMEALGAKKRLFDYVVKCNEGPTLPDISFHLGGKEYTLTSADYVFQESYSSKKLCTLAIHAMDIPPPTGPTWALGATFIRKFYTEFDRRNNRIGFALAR

SMILES | pIC50
Cc1cc(Cl)c(OCCOc2ccc(C3=C(C(=O)N(Cc4cccc(C)c4C)C4CC4)C4CNCC(C3)N4)cc2)c(Cl)c1 (stereo unspecified) | 9.80
CCCCNC(=O)C(CC(=O)C(CC1CCCCC1)NC(=O)C(Cc1cnc[nH]1)NC(=O)C(Cc1ccccc1)CS(=O)(=O)C(C)(C)C)C(C)C (stereo unspecified) | 9.15
CCCCNC(=O)C(C)CC(O)C(N)CC(C)(C)CC(=O)N1CC(C(=O)OC)Cc2ccccc21 (stereo unspecified) | 9.10
CCCCNC(=O)C(C)CC(O)C(N)CC(CNC(=O)c1cccc(OCCCOC)c1)C(C)C (stereo unspecified) | 9.05
CC(C)(C)S(=O)(=O)CC(Cc1ccccc1)C(=O)NC(Cc1cnc[nH]1)C(=O)NC(CC1CCCCC1)C(O)C(O)C1CC1 (stereo unspecified) | 9.00
COc1ccccc1COCCCOc1ccc(N2C(=O)CNCC2COC2=CC3C(=CC=CN3CCCO)C=C2)cc1 (stereo unspecified) | 7.43
